# Measurements taken from patent publication US20110236349A1, “Use of Epidermal Growth Factor Inhibitors in the Treatment of Viral Infection” (priority 2008, published 2011).
# What was measured:
# Rhinovirus 16 [1] = assay: Rhinovirus 16 infection of NCI-H292 airway epithelial cells, quantified by viral plaque assay on HeLa cells; format: cell-based, Rhinovirus 16 (major group) in human NCI-H292 cells; conditions: AG 1478 10 μM; RV16 MOI 10; NCI-H292 cell lysates; n=2
# Experimental: The effect of an EGF-R inhibitor on rhinovirus infectivity was assayed. First, human airway epithelial (NCI-H292 American Type Culture Collection Catalog No. CRL-1848) cells were treated with Rhinovirus 16 (major group Rhinovirus (RV) at multiplicity of infection (MOI) 10) or RV16 plus a selective EGFR tyrosine kinase inhibitor (AG 1478) at 10 μM. Cell lysates from these NCI-H292 cell cultures were collected at […]. To quantitate Rhinovirus infection in airway epithelial cells, cell lysates were analyzed by viral plaque assay, a technique that is commonly utilized to measure viral infection. Next, serial dilutions of NCI-H292 cell lysates were placed on HeLa cell cultures for a standard plaque assay. Cell cultures were covered with an agarose overlay. Cultures were incubated for three days. After three days, cell cultures were stained with crystal violet and the number of plaques was counted. […] FIG. 1A. […]
# The effect of an antibody specific for EGF-R on Rhinovirus 16 (RV16) infection was also assessed. […]
# FIGS. 1A and 1B. Viral quantification of Rhinovirus infection by plaque assay. […] Cell lysates were collected after 24 h and Rhinovirus infection was quantified by plaque assay [(A) n=2±SEM; (B) n=1].
# Rhinovirus 16 [2] = assay: Rhinovirus 16 infection of HeLa cells measured by flow cytometry; format: cell-based, Rhinovirus 16 (major group) in HeLa cells; conditions: RV16 MOI 10, 6 h, RV alone 62%, control 1%
# Experimental: HeLa is an epithelial cell line that is routinely used to evaluate Rhinovirus infection. HeLa; American Type Culture Collections (ATCC) No. CCL-2. Here, HeLa cell cultures were treated with serum-free medium (Control), or with serum-free medium containing Rhinovirus 16 (major group RV at multiplicity of infection (MOI) 10) with and without a selective EGFR tyrosine kinase inhibitor (AG 1478). After 6 h, cell cultures were collected and stained with a monoclonal antibody that selectively binds to Rhinovirus. Cells were processed for flow cytometry and Rhinovirus infection in HeLa cells was measured. The data, shown in FIG. 2, are expressed as percent infected cells. Control (no RV): 1%; RV: 62%; RV+AG1478 (5 μM): 13%; and RV+AG1478 (10 μM): 9%. […] No effect with a platelet derived growth factor (PDGF) inhibitor (another tyrosine kinase inhibitor) was observed.
# Influenza A/H1N1/PR8 = format: cell-based; conditions: 10 μM; 24 h; MOI~1; eight fields at 20×; n=4; Influenza alone 316±19 cells; p<0.0001
# [3] = tested on: respiratory syncytial virus (RSV); assay: RSV infection of epithelial HeLa cell cultures, viral quantification by TCID50; format: cell-based
# Experimental: To study the effect of a selective EGFR inhibitor on RSV infection, viral quantification by tissue culture-infective dose (TCID50)/100 μL in epithelial HeLa cell cultures treated with or without the selective EGFR tyrosine kinase inhibitor AG 1478 was used. […] FIG. 4A, RSV alone 10^2.5±1 TCID50 vs RSV plus AG 1478 (10 μM) 0 TCID50; n=2. FIG. 4B, RSV alone 10^4.38±0.1 TCID50 vs RSV plus AG 1478 (1 μM) 0 TCID50; n=2.
# FIGS. 4A and 4B. Viral quantification by tissue culture-infective dose (TCID50)/100 μL in epithelial cell cultures treated with or without the selective EGFR inhibitor, AG 1478 [(A) AG1478 (10 μM) in TCID50/100 μL at 2 days ±SEM, (n=2 separate experiments); (B) AG 1478 (1 μM) in TCID50/100 μL at 4 days ±SEM, (n=2 separate experiments).
# A similar set of experiments was conducted, to test the effect of Gefitinib (Iressa; ZD 1839; N-(3-chloro-4-fluoro-phenyl)-7-methoxy-6-(3-morpholin-4-ylpropoxy)quinazolin-4-amine) on RSV infection. Gefitinib (1 and 10 μM) suppressed RSV virus infection. The data are shown in FIG. 5 (RSV alone 10^1.5 TCID50 (first column), RSV plus Gefitinib (1 μM) 0 TCID50 (second column), and RSV plus Gefitinib (10 μM) 0 TCID50 (third column); n=1).
# FIG. 5. Viral quantification by tissue culture-infective dose (TCID50)/100 μL at 2 days in epithelial cell cultures treated with or without the selective EGFR inhibitor, Gefitinib. RSV alone (first column), RSV plus Gefitinib (1 μM, second column), and RSV plus Gefitinib (10 μM, third column); n=1.
SMILES,Rhinovirus infection by plaque assay (Rhinovirus 16 [1]),percent infected cells (Rhinovirus 16 [2]; 5 μM) [%],percent infected cells (Rhinovirus 16 [2]; 10 μM) [%],cells staining positive for Influenza (Influenza A/H1N1/PR8) [cells],"RSV tissue culture-infective dose (TCID50) ([3]; 1 μM, at 4 days, HeLa, RSV alone 10^4.38±0.1, n=2) [TCID50/100 μL]","RSV tissue culture-infective dose (TCID50) ([3]; 10 μM, at 2 days, HeLa) [TCID50/100 μL]","RSV tissue culture-infective dose (TCID50) ([3]; 1 μM, at 2 days, RSV alone 10^1.5, n=1) [TCID50/100 μL]"
"COc1cc2ncnc(Nc3cccc(Cl)c3)c2cc1OC [AG 1478, 4-(3-chlorophenylamino)-6,7-dimethoxyquinazoline]",suppress rhinovirus infection,13,9,94±49,0,0,–
"COc1cc2ncnc(Nc3ccc(F)c(Cl)c3)c2cc1OCCCN1CCOCC1 [Gefitinib, N-(3-chloro-4-fluoro-phenyl)-7-methoxy-6-(3-morpholin-4-ylpropoxy)quinazolin-4-amine]",–,–,–,–,–,0,0
